Assays:
[1] = xn = mol fraction of the nth substance listed; conditions: 298.15 K, 101 kPa, Liquid, Vibrating tube method
[2] = excess molar enthalpy (molar enthalpy of mixing); xn = mol fraction of the nth substance listed; conditions: 298.15 K, 101 kPa, Liquid, Calvet calorimetry

BrCCCCCCBr [1,6-dibromohexane] + CCCCOC(C)=O
Conditions	excess molar enthalpy [kcal/mol]	mass density [kg/m3]
[1], x2 = 0.1369	–	1513.56
[1], x2 = 0.2111	–	1464.63
[1], x2 = 0.2634	–	1429.52
[1], x2 = 0.3292	–	1384.72
[1], x2 = 0.3855	–	1345.64
[1], x2 = 0.4456	–	1303.3
[1], x2 = 0.5046	–	1260.95
[1], x2 = 0.5622	–	1219.05
[1], x2 = 0.6175	–	1178.12
[1], x2 = 0.7334	–	1090.14
[1], x2 = 0.7855	–	1049.66
[1], x2 = 0.8433	–	1003.91
[1], x2 = 0.8909	–	965.75
[1], x2 = 0.9462	–	920.67
[2], x2 = 0.0742	0.00813	–
[2], x2 = 0.1664	0.0139	–
[2], x2 = 0.27	0.0179	–
[2], x2 = 0.3625	0.0179	–
[2], x2 = 0.4313	0.0151	–
[2], x2 = 0.4863	0.012	–
[2], x2 = 0.5098	0.00956	–
[2], x2 = 0.5385	0.00741	–
[2], x2 = 0.5631	0.00406	–
[2], x2 = 0.5869	0.00167	–
[2], x2 = 0.6272	-0.00239	–
[2], x2 = 0.6989	-0.00526	–
[2], x2 = 0.7827	-0.00621	–
[2], x2 = 0.8669	-0.00478	–
[2], x2 = 0.9422	-0.00239	–

BrCCCCCBr [1,5-dibromopentane] + CCCCOC(C)=O
[2]
Conditions	excess molar enthalpy [kcal/mol]
x2 = 0.0669	0.00669
x2 = 0.1499	0.00956
x2 = 0.2436	0.01
x2 = 0.3318	0.00837
x2 = 0.4096	0.00454
x2 = 0.4762	0.000239
x2 = 0.5331	-0.00478
x2 = 0.5566	-0.00765
x2 = 0.5827	-0.00932
x2 = 0.6168	-0.0124
x2 = 0.6927	-0.0151
x2 = 0.7844	-0.0141
x2 = 0.8533	-0.0105
x2 = 0.9377	-0.00574

BrCCCBr [1,3-dibromopropane] + CCCCOC=O
Conditions	excess molar enthalpy [kcal/mol]	mass density [kg/m3]
[1], x2 = 0.055	–	1904.29
[1], x2 = 0.1095	–	1839
[1], x2 = 0.1626	–	1776.37
[1], x2 = 0.2171	–	1712.74
[1], x2 = 0.273	–	1648.68
[1], x2 = 0.3252	–	1589.49
[1], x2 = 0.5003	–	1397.08
[1], x2 = 0.5617	–	1331.4
[1], x2 = 0.6186	–	1271.46
[1], x2 = 0.6866	–	1200.91
[1], x2 = 0.8026	–	1082.84
[1], x2 = 0.8655	–	1020.08
[1], x2 = 0.9344	–	952.37
[2], x2 = 0.0631	0.0155	–
[2], x2 = 0.1489	0.0306	–
[2], x2 = 0.2355	0.0397	–
[2], x2 = 0.3208	0.0435	–
[2], x2 = 0.3958	0.0428	–
[2], x2 = 0.4589	0.0409	–
[2], x2 = 0.5144	0.0378	–
[2], x2 = 0.5498	0.0356	–
[2], x2 = 0.5621	0.0344	–
[2], x2 = 0.6372	0.0289	–
[2], x2 = 0.7237	0.0227	–
[2], x2 = 0.8208	0.0143	–
[2], x2 = 0.9151	0.00693	–

BrCCCBr [1,3-dibromopropane] + CCCCOC(=O)CC
[2]
Conditions	excess molar enthalpy [kcal/mol]
x2 = 0.045	0.00765
x2 = 0.1122	0.0124
x2 = 0.1829	0.0129
x2 = 0.2541	0.00908
x2 = 0.3191	0.00215
x2 = 0.3797	-0.00813
x2 = 0.4331	-0.0151
x2 = 0.4438	-0.017
x2 = 0.5107	-0.0229
x2 = 0.5886	-0.0261
x2 = 0.6793	-0.0263
x2 = 0.7807	-0.022
x2 = 0.8921	-0.0131

BrCCBr [1,2-dibromoethane] + CCCCOC=O
Conditions	excess molar enthalpy, [2] [kcal/mol]	mass density, [1] [kg/m3]
x2 = 0.0489	–	2085.1
x2 = 0.0509	0.0098	–
x2 = 0.0955	–	2008.94
x2 = 0.1197	0.0186	–
x2 = 0.1401	–	1938.46
x2 = 0.1884	–	1864.18
x2 = 0.1992	0.027	–
x2 = 0.2379	–	1790.7
x2 = 0.28	0.032	–
x2 = 0.3095	–	1688.13
x2 = 0.3398	–	1646.07
x2 = 0.3511	0.0332	–
x2 = 0.3993	0.0327	1565.68
x2 = 0.449	0.0315	–
x2 = 0.4831	0.0299	–
x2 = 0.5112	–	1422.24
x2 = 0.5504	0.027	–
x2 = 0.5786	–	1340.18
x2 = 0.6334	0.022	–
x2 = 0.641	–	1266.85
x2 = 0.7029	–	1196.55
x2 = 0.7275	0.016	–
x2 = 0.7738	–	1118.89
x2 = 0.8087	0.0105	–
x2 = 0.8358	–	1053.24
x2 = 0.9111	0.00406	–
x2 = 0.9138	–	973.46

— the NIST ThermoML archive (doi:10.1016/j.jct.2009.05.006)
